Test results reported in patent US20250387392A1, “PYRIDAZINONE COMPOSITIONS FOR THE TREATMENT OF NEUROMUSCULAR CONDITIONS” (Edgewise Therapeutics, Inc., priority 2022, published 2025).

How the values were obtained:
[1] = Preclinical experiments, target muscle concentration; type: in vivo; conditions: from preclinical experiments
Procedure: (§1) In parallel, the plasma concentrations of Compound 1 were also monitored across different dosing regimens. For group with higher dosage (e.g., the 20 mg group), there were patients with high exposures or low exposures. It was unexpected that the patients with high exposures reached to a range of plasma concentration after dosing with 20 mg/day, which was more than 4-fold higher than the target exposures predicted from preclinical models. It is also worth noting that Compound 1 was enriched in muscle. The target muscle concentration of Compound 1 from patients with lower plasma concentration were 1,000-4000 ng/g from preclinical experiments. Using muscle biopsy data from a Phase 1 multiple ascending dose (MAD) study, this equates to approximately 15-70 ng/ml in BMD. In other words, Compound 1 was enriched by about 60 fold in muscle compared to plasma.

[2] = Muscle versus plasma concentration, muscle biopsy data from Phase 1 multiple ascending dose (MAD) study; type: in vivo, human
Procedure: as §1

adults with BMD [3] = assay: North Star Ambulatory Assessment (NSAA) in adults with BMD; type: in vivo, human; conditions: for NSAA outcome: 20 mg group
From the text: After 4 months of Compound 1 dosing, NSAA increased by an average of 1.17 points compared to pre-therapy baseline. […] The NSAA improvements observed after only 4 months of Compound 1 dosing differ from trajectories observed in the natural history study reported by Bello et al. (2016), one of the most comprehensively characterized BMD cohorts, in which the yearly decline was 1.22 NSAA points.
NSAA scores were also quantified based on FIGS. 9A-9C. Compound 1 stabilized NSAA scores by rescuing the natural history trend by about 1.6 points, and led to a trend towards an improvement in the scores. […] In comparison, the expected natural history decline in untreated patients is around −1.2 to −1.3 points.
Therefore, a lower exposure of Compound 1 (e.g., 10 mg) may have a more desired functional benefit.

myoglobin = assay: Muscle damage biomarker myoglobin in adults with BMD; type: in vivo, human
Procedure: (§2) FIGS. 10 to 13 depict promising 12-month results from the ongoing open label, single-center study assessing the safety, tolerability, and impact on muscle damage biomarkers, and pharmacokinetics (PK) of Compound 1 in adults with BMD. The different dosing regimens depicted in FIGS. 10A-10C, FIG. 111B, and FIGS. 12A-12F were carried out in three cohorts. One cohort has been dosed with 20 mg of Compound 1 for 12 months. A second cohort has been dosed with 15 mg of Compound 1 for 6 months. A third cohort has been dosed with 10 mg of Compound 1 for 2 months. […] Therefore, no treatment plans were discontinued due to AEs.
(§3) Several biomarkers of muscle damage were tested to evaluate the efficacy of Compound 1 with different dosing regimens.

[4] = tested on: proinflammatory cytokines and chemokines, anti-inflammatory interleukins; assay: SOMAscan plasma proteomics, inflammatory proteins, BMD participants; type: in vivo, human
Procedure: (§4) Changes in muscle injury biomarkers such as creatine kinase (CK) or fast skeletal muscle troponin I (TNNI2) were assessed in clinical trial participants. The abundance of the biomarkers were measured by plasma proteomics (SOMAscan) in short- (1-2 months), mid- (3-4 months), or long-term (6-12 months) treatment. FIG. 14A illustrates the design of this study. 12 BMD participants, 7 of whom participated in the Phase I MAD study (Example 2), were enrolled and initially treated with 10 mg of Compound 1 daily, with dose-escalation from 10 mg to 20 mg daily as shown. Blood draws were taken at pre-dose baseline, then at regular intervals thereafter for analysis by SOMAscan, as well as quantification of CK activity or TNNI2 concentration by an activity assay or ELISA. SOMAscan is a multistep modified aptamer-based assay for highOthroughpu, sensitive, and unbiased biomarker measurement. Proteins in the samples were selectively bound with fluorescent aptamers, which were then measured on a chip array to yield values proportion to absolute concentrations.
FIG. 14G and FIG. 14H illustrate favorable shift in inflammatory biomarkers with long-term treatment. […] The observed protein concentration changes after 6-12 months were consistent across study participants (FIG. 14H).

[5] = Plasma PK of Compound 1 in adults with BMD (ARCH open label study); type: in vivo, human; parameters: Mean AUC for the Compound 1 Plasma PK levels: unit not given here; conditions: for Mean AUC for the Compound 1 Plasma PK levels: BMD patients
Procedure: FIG. 4 depicts plasma levels of Compound 1 and step count of BMD patients after four months of dosing.
(§5) FIGS. 2 to 8 depict positive 4-month interim results from the ongoing open label, single-center study assessing the safety, tolerability, and impact on muscle damage biomarkers, and pharmacokinetics (PK) of Compound 1 in adults with BMD. Twelve adults with BMD enrolled in the ARCH study, were dose escalated to daily 15 mg oral doses of Compound 1 at night after having initially received a 10 mg dose during the first 2 months of the study. […] All eligible patients have subsequently been dose escalated to 20 mg daily as per protocol.
as §2, §1

adults with BMD [6] = assay: Safety and tolerability in adults with BMD (ARCH open label study); type: in vivo, human
Procedure: as §5, §2

adults with BMD [7] = assay: Functional tests (velocity, muscle strength) in adults with BMD; type: in vivo, human
From the text: FIG. 7 depicts increases in functional measures such; walk/run velocity, stair climb velocity, and grip strength in BMD patients at two and four months following the initial administration of Compound 1 in comparison to baseline measurements.
FIGS. 12A-12F depict the functional evaluation after the treatment of Compound 1. FIG. 12A depicts the average 10 m velocity in different dosing regimens. All p-values NS with a 7% decrease at 12 months. Last observation carried forward (all N=12, except for 2 missing values, month 4 and 8). FIG. 12B depicts the average 100 meter velocity in different dosing regimens. All p-values NS with 0% change at 12 months. Last observation carried forward (all N=12, except for 2 missing values, month 4 and 8). FIG. 12C depicts the average 4-stair climb time velocity in different dosing regimens. All p-values NS except that p value for 12 months was 0.016, which was 13% decrease at 12 months. FIG. 12D depicts the average maximum grip strength in different dosing regimens. p-values <0.05 at 4, 6, 8 month and NS at 12 months. There was a 8% decrease at 12 months. FIG. 12E depicts the average maximum knee extension strength in different dosing regimens. P-values <0.05 at 4, 8, 12 month. There was a 25% decrease at 12 months. FIG. 12F depicts the maximum elbow flexion strength in different dosing regimens. All p-values NS, and there was no change at 12 months.
Furthermore, functional tests were carried out to evaluate the functional improvements of muscle in the participants resulted from Compound 1. […] Different parameters of muscle strength were also quantified and evaluated in FIGS. 12D-12F.

muscle injury proteins = assay: SOMAscan plasma proteomics, muscle injury proteins, BMD participants; type: in vivo, human
Procedure: as §4
In this study, SOMAscan was correlated to CK and TNNI2 to allow for direct conversion to absolute concentrations as well as used to identify large-scale proteomic differences between short- and long-term treatment with Compound 1. […] FIG. 14C illustrates SOMAscan-quantified CK and TNNI2 in blood. […]

[8] = tested on: fast skeletal muscle troponin I (TNNI2); assay: Muscle damage biomarker fast skeletal muscle troponin I in adults with BMD (ELISA / SOMAscan); type: in vivo, human
Procedure: as §5
(§6) Treatment with Compound 1 led to a significant decrease in key biomarkers of muscle damage when assessed by laboratory assays. Importantly, CK and fast skeletal muscle troponin I were reduced by an average of 29% and 73%, respectively, after 4 months (FIG. 5).
as §3, §4
(§7) In this study, SOMAscan was correlated to CK and TNNI2 to allow for direct conversion to absolute concentrations as well as used to identify large-scale proteomic differences between short- and long-term treatment with Compound 1. FIG. 14B illustrates validation of CK and TNNI2, where a strong correlation between SOMAscan and absolute measurements of CK (left) and TNNI2 (right) was observed. FIG. 14C illustrates SOMAscan-quantified CK and TNNI2 in blood. […] Indicated significance was for all values at that treatment point relative to pre-dose baseline. FIG. 14D and FIG. 14E illustrate the effect of Compound 1 on muscle injury proteins. SOMAscan was used to analyze the effects of treatment on a set of proteins identified to correlate with bona-fide contraction-induced skeletal muscle injury (FIG. 14D).

adults with BMD [9] = assay: Self-reported pain score in adults with BMD; type: in vivo, human
From the text: FIG. 8 depicts a decrease in the self-reported pain score in BMD patients at two and four months following the initial administration of Compound 1.
BMD individuals usually report more diffuse pain on spine and calves, See Jacques M F et al., Plos ONE (2019). Self-reported pain evaluation was collected and quantified in FIG. 13. […] Therefore, Compound 1 has shown to reduce pain associated with BMD.

creatine kinase (CK) = assay: Muscle damage biomarker creatine kinase in adults with BMD (activity assay / SOMAscan); type: in vivo, human
Procedure: as §5, §6, §3, §4, §7

[10] = two and four months after initial administration (FIG. 7)
[11] = after 4 months, laboratory assay
[12] = short-term treatment (1-2 months), relative to pre-dose baseline

## O=c1ccc(-c2cnc(OCC(F)(F)F)nc2)nn1Cc1cncc(F)c1 [Compound 1]
[1]
  Target muscle concentration of Compound 1: 1,000-4000 ng/g
[2]; human, muscle, read-out: Enrichment in muscle compared to plasma
  Kp: ~60
[2]; in BMD, using Phase 1 MAD muscle biopsy data
  Plasma concentration equating to target muscle concentration: 15 to 70 ng/mL
Adults with BMD [3]; participants under high exposures (negative changes in NSAA)
  NSAA outcome: less optimal outcomes
Adults with BMD [3]; participants with the lower exposures
  NSAA outcome: stable or the best improving NSAA scores
Adults with BMD [3]; 12-month group (FIG. 11C)
  Participants with the same or better NSAA scores: about 75%
Adults with BMD [3]; 12-month results (FIG. 11A)
  NSAA rescue of the natural history trend: about 1.6 points
Adults with BMD [3]; after 4 months of dosing
  Average NSAA increase compared to pre-therapy baseline: 1.17 points
  Participants with functional improvement or no decline on NSAA relative to baseline: nine of the twelve
myoglobin; 10 mg dose
  Change of myoglobin level: near maximal decreases
myoglobin; different dosing regimens up to 12 months (FIG. 10C)
  Change of myoglobin level: sustained decrease
[4]; after 6-12 months
  Proinflammatory cytokines and chemokines (SOMAscan): very significantly reduced
[4]; after long-term treatment (6-12 months)
  Anti-inflammatory interleukins (SOMAscan): increased
[5]; 10 mg dose
  Mean AUC for the Compound 1 Plasma PK levels: 1,454
[5]; 15 mg dose
  Mean AUC for the Compound 1 Plasma PK levels: 2,299
[5]; 20 mg dose
  Mean AUC for the Compound 1 Plasma PK levels: 2,293
[5]; 20 mg/day, patients with high exposures
  Plasma concentration relative to target exposures predicted from preclinical models: more than 4 fold
Adults with BMD [6]; 4-month interim
  Most common adverse events: dizziness, drowsiness, and headache
Adults with BMD [6]; 4-month interim, 10 mg for 2 months then 15 mg daily oral at night, twelve adults with BMD
  Tolerability: well-tolerated in all participants with no discontinuations or dose reductions
Adults with BMD [6]; 12-month results, 10, 15 and 20 mg doses
  Tolerability: well tolerated at all doses without any severe adverse events
Adults with BMD [7]; 12-month results (FIG. 12A)
  Deterioration in 10 m velocity: no statistically significant deterioration
Adults with BMD [7]; 12-month results (FIG. 12B)
  Deterioration in 100 meter velocity: no statistically significant deterioration
Adults with BMD [7]; 12-month results (FIG. 12C)
  Deterioration in 4-stair climb time velocity: no statistically significant deterioration
Adults with BMD [7]; at 12 months, p 0.016 (FIG. 12C)
  Decrease in average 4-stair climb time velocity: 13%
Adults with BMD [7]; at 12 months, p <0.05 (FIG. 12E)
  Decrease in average maximum knee extension strength: 25%
Adults with BMD [7]; at 12 months, p NS (FIG. 12A)
  Decrease in average 10 m velocity: 7%
Adults with BMD [7]; at 12 months, p NS (FIG. 12B)
  Change in average 100 meter velocity: 0%
Adults with BMD [7]; at 12 months, p NS (FIG. 12D)
  Decrease in average maximum grip strength: 8%
Adults with BMD [7]; at 12 months, p NS (FIG. 12F)
  Change in maximum elbow flexion strength: no change
Adults with BMD [7]; some participants from the 20 mg group (FIGS. 12C-12F)
  Muscle strength effect: muscle strength weakness
Adults with BMD [7]; [10]
  Grip strength versus baseline: increases
  Stair climb velocity versus baseline: increases
  Walk/run velocity versus baseline: increases
Muscle injury proteins; long-term treatments (6-12 months)
  Muscle injury proteins (SOMAscan): stable levels or further decreases
Muscle injury proteins; short-term treatment (1-2 months, 10 mg)
  Muscle injury proteins (SOMAscan): decreased from pre-dose baseline
[8]; 10 mg dose
  Change of TNNI2 level: near maximal decreases
[8]; [11]
  Average reduction of fast skeletal muscle troponin I: 73%
[8]; after 4 months, twelve participants
  Patients reaching fast skeletal muscle troponin I levels of unaffected adults: four patients achieving levels observed in unaffected adults
[8]; different dosing regimens up to 12 months (FIG. 10B)
  Change of TNNI2 level: sustained decrease
[8]; longer-term treatment timepoints
  SOMAscan-quantified circulating TNNI2: reduced to nearly healthy levels
[8]; [12]
  SOMAscan-quantified circulating TNNI2: reduced by short-term treatment
Adults with BMD [9]; after 12 months of treatment (FIG. 13)
  Self-reported pain scores: positive trend
Adults with BMD [9]; two and four months after initial administration (FIG. 8)
  Self-reported pain score: decrease
Creatine kinase (CK); 10 mg dose
  Change of creatine kinase (CK) level: near maximal decreases
Creatine kinase (CK); [11]
  Average reduction of CK: 29%
Creatine kinase (CK); different dosing regimens up to 12 months (FIG. 10A)
  Change of creatine kinase (CK) level: sustained decrease
Creatine kinase (CK); [12]
  SOMAscan-quantified circulating CK: reduced by short-term treatment
